Source: patent publication US6377057B1, “Classification of biological agents according to the spectral density signature of evoked changes in cellular electric potential” (priority 1999, dated 2002)

Tested on: embryonic chick myocardial cells
Assay type: cell-based

| Compound | PSD ratio (PSD after agent ÷ PSD before agent), modulation function of the action potential | PSD modulation function of the action potential (additional data, concentration not given) |
| --- | --- | --- |
| CNC[C@H](O)c1ccc(O)c(O)c1 [Epinephrine] | enhanced the power of the AP across a 2 kHz bandwidth with a slight bandpass effect observed | – |
| NC1=N[C@H](O)[C@H]2[C@H]3O[C@]4(O)O[C@@H]([C@@H](O)[C@@]2(N1)[C@@H]4O)[C@]3(O)CO [Tetrodotoxin] | low pass filter effect that clearly reduced the high frequency components of the AP | – |
| CC[N+](CC)(CC)CC(=O)Nc1c(C)cccc1C.[Br-] [QX-314] | – | modulation function similar to that of TTX, but with additional attenuation at lower frequencies |
